ChEMBL document CHEMBL1201862, “PubChem BioAssay data set” (2004)
Active and inactive are the calls of the source.

Tests used:
[1] = general mammalian cell viability loss – activator set, cherry-pick, cytotoxicity control for miR-122 modulator project, dose response (AID 720690); type: functional, cell-based;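 note: HEK293T human cells scored for general mammalian cytotoxicity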
[2] = target: 5-hydroxytryptamine receptor 1A (Homo sapiens, UniProt P08908); type: functional
[3] = general mammalian cell viability loss – inhibitor set, cherry-pick, set 2, cytotoxicity control for miR-122 modulator project, dose response (AID 720697); type: functional, cell-based
[4] = target: T1, Heat shock factor protein 1 (Mus musculus, UniProt P38532); assay: decrease of HSF1-responsive luciferase luminescence – cell-based, NIH3T3, dose retest, confirmation (AID 2382); type: functional;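 note: NIH3T3 fibroblasts with HSF1-driven luciferase reporter stressed by proteasome inhibitor MG132; luminescence from HSF1-driven luciferase expression after 8 hours of MG132 stress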
T1 sequence (P38532 whole entry): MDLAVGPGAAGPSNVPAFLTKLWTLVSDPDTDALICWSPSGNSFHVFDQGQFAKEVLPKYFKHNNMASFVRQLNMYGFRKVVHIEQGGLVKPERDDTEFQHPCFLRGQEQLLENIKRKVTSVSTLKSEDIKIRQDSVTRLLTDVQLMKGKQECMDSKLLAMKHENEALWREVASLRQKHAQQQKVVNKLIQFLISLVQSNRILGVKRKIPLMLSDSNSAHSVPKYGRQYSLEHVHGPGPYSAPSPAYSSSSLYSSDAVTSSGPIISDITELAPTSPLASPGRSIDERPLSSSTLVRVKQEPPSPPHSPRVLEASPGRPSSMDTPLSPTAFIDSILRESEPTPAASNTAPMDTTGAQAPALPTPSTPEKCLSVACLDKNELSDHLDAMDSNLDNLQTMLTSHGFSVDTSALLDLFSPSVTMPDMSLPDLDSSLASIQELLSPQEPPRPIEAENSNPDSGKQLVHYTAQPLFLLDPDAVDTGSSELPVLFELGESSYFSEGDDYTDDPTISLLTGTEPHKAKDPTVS

[5] = Luminescent dose response cell-based high throughput screening assay for inhibitors of the Janus kinase 2 mutant JAK2V617F. [Related pubchem assays: 1446 (Primary screen.), 1521 (Confirmation assay.), 1486 (Counter screen.)]; type: functional
[6] = target: T2, Replicative DNA helicase DnaB (Mycobacterium tuberculosis, UniProt P9WMR3); assay: DnaB intein splicing inhibitors, dose response, biochemical, cell-free fluorescence (AID 449749); type: functional
T2 sequence (P9WMR3 whole entry): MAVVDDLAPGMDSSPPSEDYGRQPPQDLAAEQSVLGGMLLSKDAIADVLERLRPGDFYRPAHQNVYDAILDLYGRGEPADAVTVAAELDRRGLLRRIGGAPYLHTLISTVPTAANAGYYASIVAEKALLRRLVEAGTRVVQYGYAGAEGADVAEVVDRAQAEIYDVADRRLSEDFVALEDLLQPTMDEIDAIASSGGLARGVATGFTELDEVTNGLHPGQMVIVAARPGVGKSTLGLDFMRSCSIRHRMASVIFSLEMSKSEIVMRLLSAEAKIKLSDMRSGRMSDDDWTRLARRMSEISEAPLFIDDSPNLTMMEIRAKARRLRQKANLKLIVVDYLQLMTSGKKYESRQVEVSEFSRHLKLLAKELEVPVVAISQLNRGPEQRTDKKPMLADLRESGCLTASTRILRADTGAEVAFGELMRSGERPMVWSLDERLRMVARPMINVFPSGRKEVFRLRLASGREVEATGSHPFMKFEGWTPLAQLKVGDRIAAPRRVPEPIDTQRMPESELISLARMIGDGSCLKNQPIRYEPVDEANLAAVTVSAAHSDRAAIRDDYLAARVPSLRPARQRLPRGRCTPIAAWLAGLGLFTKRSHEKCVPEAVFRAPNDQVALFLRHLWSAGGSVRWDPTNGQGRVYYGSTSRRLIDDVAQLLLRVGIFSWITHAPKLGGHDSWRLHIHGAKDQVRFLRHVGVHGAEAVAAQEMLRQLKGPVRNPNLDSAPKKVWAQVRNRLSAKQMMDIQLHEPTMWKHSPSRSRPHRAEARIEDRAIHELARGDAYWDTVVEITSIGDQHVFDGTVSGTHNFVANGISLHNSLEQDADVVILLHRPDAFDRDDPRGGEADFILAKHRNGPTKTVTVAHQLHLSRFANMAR

Streptokinase A = target: T3, Streptokinase A (Streptococcus pyogenes serotype M1, UniProt P10520); assay: viability-normalized secreted streptokinase activity reduction – plasminogen activation absorbance, OD405, dose response (AID 1914); type: functional, Streptococcus pyogenes M1 GAS;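 note: secreted streptokinase activity via plasminogen activation per viability signal from cell pellet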
T3 sequence (P10520 whole entry): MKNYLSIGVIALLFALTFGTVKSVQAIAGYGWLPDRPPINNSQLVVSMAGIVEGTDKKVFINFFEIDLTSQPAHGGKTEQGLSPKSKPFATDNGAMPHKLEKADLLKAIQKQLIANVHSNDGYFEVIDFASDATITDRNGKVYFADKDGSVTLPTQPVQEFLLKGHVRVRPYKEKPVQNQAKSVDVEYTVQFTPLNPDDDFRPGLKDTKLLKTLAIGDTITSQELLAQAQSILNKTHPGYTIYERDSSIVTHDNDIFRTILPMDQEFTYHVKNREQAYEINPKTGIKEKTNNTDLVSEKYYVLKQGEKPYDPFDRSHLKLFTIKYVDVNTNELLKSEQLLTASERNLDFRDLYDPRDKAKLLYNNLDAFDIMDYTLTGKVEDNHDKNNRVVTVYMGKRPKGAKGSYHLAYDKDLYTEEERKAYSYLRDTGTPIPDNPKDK

[7] = system: Streptococcus sp. 'group A'; assay: Streptococcus pyogenes SK(-)GAS viability under kanamycin – luminescence, BacTiterGlo, confirmation, counter-screen for streptokinase expression inhibitor project, dose response (AID 1900); type: functional, organism-based
Protein RecA = target: T4, Protein RecA (Mycobacterium tuberculosis, UniProt P9WHJ3); assay: Fluorescence Cell-Free Homogeneous Dose Retest to Identify Inhibitors of RecA-Intein Splicing Activity. [Related pubchem assays (depositor defined):AID2097, AID2223, AID489010, AID492950]; type: functional
T4 sequence (P9WHJ3 whole entry): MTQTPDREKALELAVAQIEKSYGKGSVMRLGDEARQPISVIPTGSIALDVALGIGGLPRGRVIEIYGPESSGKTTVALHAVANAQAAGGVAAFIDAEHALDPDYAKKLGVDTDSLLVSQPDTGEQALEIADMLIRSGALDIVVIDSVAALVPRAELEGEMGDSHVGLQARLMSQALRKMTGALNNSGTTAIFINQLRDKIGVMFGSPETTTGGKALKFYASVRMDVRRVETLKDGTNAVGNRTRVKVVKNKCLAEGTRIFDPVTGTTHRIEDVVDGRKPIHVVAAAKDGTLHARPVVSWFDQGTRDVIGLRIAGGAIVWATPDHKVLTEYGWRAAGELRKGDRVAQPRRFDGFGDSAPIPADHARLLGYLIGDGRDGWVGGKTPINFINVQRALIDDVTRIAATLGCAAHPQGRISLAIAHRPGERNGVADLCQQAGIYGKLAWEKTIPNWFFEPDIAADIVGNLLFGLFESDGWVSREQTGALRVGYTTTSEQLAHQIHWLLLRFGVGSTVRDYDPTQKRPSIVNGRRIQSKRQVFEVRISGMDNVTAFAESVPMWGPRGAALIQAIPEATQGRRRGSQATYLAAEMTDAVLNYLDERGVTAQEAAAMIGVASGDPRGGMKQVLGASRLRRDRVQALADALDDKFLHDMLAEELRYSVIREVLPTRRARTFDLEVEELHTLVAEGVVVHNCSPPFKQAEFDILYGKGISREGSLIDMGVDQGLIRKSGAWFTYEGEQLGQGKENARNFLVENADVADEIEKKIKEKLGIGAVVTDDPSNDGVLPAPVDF

Streptococcus = assay: GAS UMAA2166 growth inhibition – luminescence, BacTiterGlo, counter-screen for streptokinase expression inhibitor project, dose response (AID 1915); type: functional, organism-based;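 note: potency for reduction of bacterial viability or growth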
[8] = target: T5, Carboxy-terminal domain RNA polymerase II polypeptide A small phosphatase 1 (Homo sapiens, UniProt Q9GZU7); assay: CTDSP1 inhibitors, concentration-response, biochemical, absorbance readout, ultra-high-throughput screen actives (AID 540297); type: functional
T5 sequence (Q9GZU7 whole entry): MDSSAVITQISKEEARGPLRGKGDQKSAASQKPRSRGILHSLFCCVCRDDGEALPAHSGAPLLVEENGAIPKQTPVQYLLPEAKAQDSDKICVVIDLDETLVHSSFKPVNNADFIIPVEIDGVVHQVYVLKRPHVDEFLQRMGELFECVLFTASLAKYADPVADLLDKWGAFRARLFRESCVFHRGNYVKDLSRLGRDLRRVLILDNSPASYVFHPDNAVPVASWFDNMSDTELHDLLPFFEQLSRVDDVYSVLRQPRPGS

[9] = target: Dual specificity protein phosphatase 3 (Homo sapiens, UniProt P51452); assay: VHR phosphatase inhibition, dose response, selectivity assay for STEP inhibitor project, biochemical (AID 602374); type: functional; conditions: read-out: IC50_Mean
[10] = target: Tyrosine-protein phosphatase non-receptor type 5 (Homo sapiens, UniProt P54829); assay: PTPN5 enzyme inhibition – biochemical, fluorescence intensity, uHTS hits, confirmation (AID 602372); type: functional; conditions: read-out: IC50_Mean
[11] = target: Dual specificity protein phosphatase 6 (Rattus norvegicus, UniProt Q64346); assay: inhibition of rat DUSP6 enzyme activity – biochemical, in vitro, primary screen (AID 425)
Prothrombin = Prothrombin (Bos taurus, UniProt P00735); assay: thrombin protease inhibitors – biochemical, fluorescence polarization, uHTS hits, dose response (AID 602369); type: functional
[12] = target: 26S proteasome non-ATPase regulatory subunit 14 (Homo sapiens, UniProt O00487); assay: inhibition of proteasome subunit RPN11 – biochemical, fluorescence polarization, uHTS hits, confirmation (AID 602368); type: functional
[13] = target: T6, Tyrosine-protein phosphatase non-receptor type 22 (Homo sapiens, UniProt Q9Y2R2); assay: lymphoid phosphatase LYP inhibitors – biochemical, selectivity assay for STEP inhibitor project, dose response (AID 624241); type: functional
T6 sequence (Q9Y2R2 whole entry): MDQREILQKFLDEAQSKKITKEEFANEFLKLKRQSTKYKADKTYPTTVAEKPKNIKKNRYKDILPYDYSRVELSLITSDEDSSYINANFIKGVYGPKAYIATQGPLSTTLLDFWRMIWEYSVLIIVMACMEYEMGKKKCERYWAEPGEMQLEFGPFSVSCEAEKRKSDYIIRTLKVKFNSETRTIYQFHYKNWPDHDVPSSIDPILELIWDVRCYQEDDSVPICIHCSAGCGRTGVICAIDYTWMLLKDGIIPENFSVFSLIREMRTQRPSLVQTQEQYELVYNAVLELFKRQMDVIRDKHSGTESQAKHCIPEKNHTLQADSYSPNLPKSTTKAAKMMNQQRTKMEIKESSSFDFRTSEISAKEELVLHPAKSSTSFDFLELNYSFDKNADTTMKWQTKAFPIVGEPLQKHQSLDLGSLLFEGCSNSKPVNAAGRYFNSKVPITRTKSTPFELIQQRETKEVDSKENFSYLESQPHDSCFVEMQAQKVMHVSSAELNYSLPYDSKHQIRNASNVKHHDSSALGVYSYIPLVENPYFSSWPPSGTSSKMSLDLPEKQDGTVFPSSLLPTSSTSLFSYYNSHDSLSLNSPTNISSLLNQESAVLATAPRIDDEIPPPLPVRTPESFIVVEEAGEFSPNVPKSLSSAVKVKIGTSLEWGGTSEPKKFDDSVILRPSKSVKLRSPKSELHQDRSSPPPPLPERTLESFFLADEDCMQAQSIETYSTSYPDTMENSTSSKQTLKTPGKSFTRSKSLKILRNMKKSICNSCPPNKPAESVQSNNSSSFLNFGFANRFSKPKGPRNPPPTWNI

[14] = target: Peroxisome proliferator-activated receptor gamma/Nuclear receptor coactivator 1 (Homo sapiens, UniProt P37231); assay: TR-FRET dose response biochemical High Throughput Screening assay for agonists of the steroid receptor coactivator 1 (SRC-1) recruitment by the peroxisome proliferator-activated receptor gamma (PPAR gamma): non-selective agonists. [Related pubchem assays (depositor defined):AID1300, AID1808, AID504735, AID631]; type: protein assay
[15] = target: Peroxisome proliferator-activated receptor gamma/Nuclear receptor coactivator 3 (Homo sapiens, UniProt P37231); assay: TR-FRET dose response biochemical High Throughput Screening assay for agonists of the steroid receptor coactivator 3 (SRC-3) recruitment by the peroxisome proliferator-activated receptor gamma (PPAR gamma): non-selective agonists. [Related pubchem assays: 1301 (Confirmation screen.), 1048 (Primary screen.)]; type: functional
[16] = target: Peroxisome proliferator-activated receptor gamma/Nuclear receptor coactivator 2 (Homo sapiens, UniProt P37231); assay: TR-FRET dose response biochemical High Throughput Screening assay for agonists of the steroid receptor coactivator 2 (SRC-2) recruitment by the peroxisome proliferator-activated receptor gamma (PPAR gamma): non-selective agonists. [Related pubchem assays: 1297, 1032 ]; type: functional
[17] = target: 72 kDa type IV collagenase (Homo sapiens, UniProt P08253); assay: Dose Response validation of uHTS RPN11 inhibitor hits using a MMP-2 Fluorescence assay.; type: functional
[18] = target: Tyrosine-protein phosphatase non-receptor type 11 (Homo sapiens, UniProt Q06124); assay: PTPN11 enzyme inhibitors – biochemical, selectivity assay for STEP inhibitor project, dose response (AID 602367); type: functional; conditions: read-out: IC50_Mean
Genome polyprotein = Genome polyprotein (Hepatitis C virus, UniProt Q2Q167); assay: disruption of hepatitis C core self-association – biochemical, TR-FRET, dose response (AID 2159); parameters: species or system Hepacivirus hominis;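 note: blocks dimerization of HCV core protein measured by TR-FRET between tagged core106 pairs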
14-3-3 protein gamma = 14-3-3 protein gamma (Homo sapiens, UniProt P61981); assay: modulators of 14-3-3 gamma client binding – dose response (AID 711); type: functional
Chain of 14-3-3 protein gamma (P61981 whole entry): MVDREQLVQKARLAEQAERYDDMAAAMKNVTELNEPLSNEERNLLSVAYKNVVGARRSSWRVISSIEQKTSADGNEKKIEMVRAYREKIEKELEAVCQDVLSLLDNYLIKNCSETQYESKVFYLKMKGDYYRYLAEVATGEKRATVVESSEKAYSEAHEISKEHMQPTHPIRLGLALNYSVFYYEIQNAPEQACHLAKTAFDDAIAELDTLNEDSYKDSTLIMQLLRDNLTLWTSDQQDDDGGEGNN

Chain of 72 kDa type IV collagenase (P08253 whole entry): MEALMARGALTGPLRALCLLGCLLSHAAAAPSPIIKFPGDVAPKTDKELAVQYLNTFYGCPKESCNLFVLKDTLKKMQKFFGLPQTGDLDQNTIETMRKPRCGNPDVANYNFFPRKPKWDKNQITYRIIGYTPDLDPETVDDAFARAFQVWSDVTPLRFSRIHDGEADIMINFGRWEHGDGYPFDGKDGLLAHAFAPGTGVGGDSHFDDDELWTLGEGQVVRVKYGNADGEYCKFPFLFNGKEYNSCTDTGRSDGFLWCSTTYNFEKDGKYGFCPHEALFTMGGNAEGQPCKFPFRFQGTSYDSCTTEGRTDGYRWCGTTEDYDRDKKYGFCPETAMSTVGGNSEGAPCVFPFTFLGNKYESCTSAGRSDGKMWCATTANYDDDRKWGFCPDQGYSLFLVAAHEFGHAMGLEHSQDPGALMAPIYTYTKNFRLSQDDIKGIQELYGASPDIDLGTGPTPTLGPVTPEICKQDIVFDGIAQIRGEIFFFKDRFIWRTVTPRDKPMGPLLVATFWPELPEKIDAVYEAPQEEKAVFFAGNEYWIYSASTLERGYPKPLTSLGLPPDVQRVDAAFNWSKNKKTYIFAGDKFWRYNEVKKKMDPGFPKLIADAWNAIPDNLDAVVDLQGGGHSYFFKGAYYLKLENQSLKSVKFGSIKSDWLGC
Chain of 26S proteasome non-ATPase regulatory subunit 14 (O00487 whole entry): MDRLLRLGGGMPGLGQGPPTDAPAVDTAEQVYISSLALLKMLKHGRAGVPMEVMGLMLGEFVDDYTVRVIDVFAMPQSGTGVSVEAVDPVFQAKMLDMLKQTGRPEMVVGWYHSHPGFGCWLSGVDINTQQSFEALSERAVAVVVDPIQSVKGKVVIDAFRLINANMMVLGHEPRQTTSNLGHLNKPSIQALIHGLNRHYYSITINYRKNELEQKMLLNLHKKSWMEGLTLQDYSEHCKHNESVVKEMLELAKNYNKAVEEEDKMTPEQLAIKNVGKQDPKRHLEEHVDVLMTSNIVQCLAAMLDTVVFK
Chain of Peroxisome proliferator-activated receptor gamma/Nuclear receptor coactivator 1 (P37231 whole entry): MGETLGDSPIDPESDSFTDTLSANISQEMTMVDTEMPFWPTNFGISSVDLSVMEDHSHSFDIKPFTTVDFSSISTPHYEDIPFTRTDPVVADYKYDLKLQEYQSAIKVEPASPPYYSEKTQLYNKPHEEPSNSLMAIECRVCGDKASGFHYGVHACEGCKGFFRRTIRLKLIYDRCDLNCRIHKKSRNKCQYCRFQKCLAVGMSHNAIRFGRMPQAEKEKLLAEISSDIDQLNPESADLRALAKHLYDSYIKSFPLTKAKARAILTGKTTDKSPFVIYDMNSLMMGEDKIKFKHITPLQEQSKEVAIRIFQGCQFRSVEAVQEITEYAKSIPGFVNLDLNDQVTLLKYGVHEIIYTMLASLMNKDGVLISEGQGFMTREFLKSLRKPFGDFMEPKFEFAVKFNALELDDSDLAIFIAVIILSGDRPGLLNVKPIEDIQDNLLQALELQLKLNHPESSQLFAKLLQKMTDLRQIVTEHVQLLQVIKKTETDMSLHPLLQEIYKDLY
Chain of Peroxisome proliferator-activated receptor gamma/Nuclear receptor coactivator 1 (Q15788 whole entry, further chain): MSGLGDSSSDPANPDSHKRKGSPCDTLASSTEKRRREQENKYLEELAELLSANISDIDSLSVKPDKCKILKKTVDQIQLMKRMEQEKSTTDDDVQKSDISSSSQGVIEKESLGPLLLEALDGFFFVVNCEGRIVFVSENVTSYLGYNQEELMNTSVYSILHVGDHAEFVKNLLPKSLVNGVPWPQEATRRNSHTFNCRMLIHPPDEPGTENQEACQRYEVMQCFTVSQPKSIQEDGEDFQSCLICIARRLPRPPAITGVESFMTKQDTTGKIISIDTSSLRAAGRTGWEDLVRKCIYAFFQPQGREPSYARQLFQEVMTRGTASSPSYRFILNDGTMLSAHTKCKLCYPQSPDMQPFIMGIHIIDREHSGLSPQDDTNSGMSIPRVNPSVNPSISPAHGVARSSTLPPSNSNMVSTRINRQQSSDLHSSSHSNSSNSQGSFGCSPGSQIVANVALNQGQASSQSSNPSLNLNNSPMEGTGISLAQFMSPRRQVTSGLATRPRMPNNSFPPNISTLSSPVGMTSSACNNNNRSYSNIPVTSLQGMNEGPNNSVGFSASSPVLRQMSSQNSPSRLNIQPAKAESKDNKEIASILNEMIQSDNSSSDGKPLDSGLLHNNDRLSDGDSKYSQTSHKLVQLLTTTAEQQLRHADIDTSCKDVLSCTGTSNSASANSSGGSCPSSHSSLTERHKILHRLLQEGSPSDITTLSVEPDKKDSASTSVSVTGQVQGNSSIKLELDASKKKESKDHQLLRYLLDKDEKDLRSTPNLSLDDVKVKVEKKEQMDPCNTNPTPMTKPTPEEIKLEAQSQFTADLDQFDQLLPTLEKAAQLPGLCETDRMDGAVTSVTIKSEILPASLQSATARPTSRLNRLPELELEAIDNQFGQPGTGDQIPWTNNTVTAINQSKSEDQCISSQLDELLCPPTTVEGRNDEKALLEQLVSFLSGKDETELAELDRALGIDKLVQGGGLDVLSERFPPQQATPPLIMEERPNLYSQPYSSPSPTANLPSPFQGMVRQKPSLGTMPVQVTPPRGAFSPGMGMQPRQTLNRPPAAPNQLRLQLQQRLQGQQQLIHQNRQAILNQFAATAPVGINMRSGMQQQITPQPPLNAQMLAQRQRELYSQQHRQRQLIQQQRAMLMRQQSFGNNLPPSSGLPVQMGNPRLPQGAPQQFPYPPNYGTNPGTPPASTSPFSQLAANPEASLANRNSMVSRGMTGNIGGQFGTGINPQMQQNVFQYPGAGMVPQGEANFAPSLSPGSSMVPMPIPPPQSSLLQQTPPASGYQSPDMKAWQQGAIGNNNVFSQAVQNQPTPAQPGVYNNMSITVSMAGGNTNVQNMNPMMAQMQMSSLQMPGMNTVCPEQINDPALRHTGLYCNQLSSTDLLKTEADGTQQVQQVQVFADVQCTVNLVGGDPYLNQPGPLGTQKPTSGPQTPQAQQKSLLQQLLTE
Chain of Genome polyprotein (Q2Q167 whole entry): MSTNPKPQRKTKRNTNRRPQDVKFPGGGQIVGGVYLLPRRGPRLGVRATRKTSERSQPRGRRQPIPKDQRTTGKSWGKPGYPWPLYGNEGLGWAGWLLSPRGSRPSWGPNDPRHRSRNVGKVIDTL
Chain of Tyrosine-protein phosphatase non-receptor type 5 (P54829 whole entry): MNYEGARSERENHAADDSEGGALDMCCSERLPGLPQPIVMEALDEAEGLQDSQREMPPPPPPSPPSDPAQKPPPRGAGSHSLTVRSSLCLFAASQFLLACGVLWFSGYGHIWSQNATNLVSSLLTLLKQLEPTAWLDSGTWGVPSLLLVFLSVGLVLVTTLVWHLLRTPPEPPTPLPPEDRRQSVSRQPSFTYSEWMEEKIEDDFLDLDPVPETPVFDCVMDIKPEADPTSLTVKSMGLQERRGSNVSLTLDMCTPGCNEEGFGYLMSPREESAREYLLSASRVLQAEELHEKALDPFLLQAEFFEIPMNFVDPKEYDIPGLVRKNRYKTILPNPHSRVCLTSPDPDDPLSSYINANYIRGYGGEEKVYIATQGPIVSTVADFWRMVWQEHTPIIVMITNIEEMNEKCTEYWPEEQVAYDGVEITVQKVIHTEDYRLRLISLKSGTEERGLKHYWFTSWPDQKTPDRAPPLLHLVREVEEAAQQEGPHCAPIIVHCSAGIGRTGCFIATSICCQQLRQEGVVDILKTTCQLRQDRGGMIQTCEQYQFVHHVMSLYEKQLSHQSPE
Chain of Dual specificity protein phosphatase 3 (P51452 whole entry): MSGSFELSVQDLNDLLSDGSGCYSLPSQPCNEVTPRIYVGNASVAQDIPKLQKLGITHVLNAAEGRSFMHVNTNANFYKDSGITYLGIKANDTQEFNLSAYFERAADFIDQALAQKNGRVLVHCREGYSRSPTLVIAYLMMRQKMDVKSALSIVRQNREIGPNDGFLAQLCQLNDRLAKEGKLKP
Chain of Tyrosine-protein phosphatase non-receptor type 11 (Q06124 whole entry): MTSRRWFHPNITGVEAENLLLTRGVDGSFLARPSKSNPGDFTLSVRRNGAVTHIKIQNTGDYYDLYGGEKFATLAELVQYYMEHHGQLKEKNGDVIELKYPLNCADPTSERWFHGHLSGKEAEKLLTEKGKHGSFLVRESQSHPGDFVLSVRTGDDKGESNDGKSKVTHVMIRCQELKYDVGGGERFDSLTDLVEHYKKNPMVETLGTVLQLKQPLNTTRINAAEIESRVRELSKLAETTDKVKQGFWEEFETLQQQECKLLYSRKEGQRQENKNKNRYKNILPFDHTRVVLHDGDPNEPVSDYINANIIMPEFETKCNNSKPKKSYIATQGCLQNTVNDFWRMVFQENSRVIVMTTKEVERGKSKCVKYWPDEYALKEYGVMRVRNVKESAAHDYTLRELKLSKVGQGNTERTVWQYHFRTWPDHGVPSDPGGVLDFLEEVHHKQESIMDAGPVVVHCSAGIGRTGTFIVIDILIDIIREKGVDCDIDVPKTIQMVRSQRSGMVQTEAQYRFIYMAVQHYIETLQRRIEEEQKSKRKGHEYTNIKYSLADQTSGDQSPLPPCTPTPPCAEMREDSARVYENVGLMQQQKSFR

CCOC(=O)C1CCN(C(c2cccnc2)c2c(NC(=O)c3ccco3)sc(C)c2C)CC1 (centres undefined)
AC50 [1]: 29.4 µM (active)
EC50 [2]: > 50 µM (not active)
AC50 [3]: 1.05 µM (active)

Cc1cccc(CS(=O)(=O)c2nnc([C@H](Cc3ccccc3)NC(=O)OC(C)(C)C)o2)c1
EC50 [4]: 2.19 µM (active)
IC50 [5]: 0.87 µM (active)
AC50 [6]: 2.68 µM (active)
EC50 (Streptokinase A): 1.5 µM (active)
EC50 [7]: 8.25 µM (active)
EC50 (Protein RecA): 5.42 µM (active)
EC50 (Streptococcus): 10.2 µM (active)

Cc1cccc(Nc2nn3c(=O)c4ccccc4nc3s2)c1
IC50 [8]: 3.16 µM (active)
IC50 [9]: 1.21 µM (active)
IC50 [10]: 4.17 µM (active)
IC50 [11]: > 10 µM (not active)
IC50 (Prothrombin): > 100 µM (inactive)
IC50 [12]: 17.6 µM (active)
IC50 [13]: 96.2 µM (inactive)
EC50 [14]: 32.2 µM (inactive)
EC50 [15]: > 79.4 µM (not active)
EC50 [16]: 21.7 µM (not active)
IC50 [17]: 5.79 µM (active)
IC50 [18]: 1.71 µM (active)
IC50 (Genome polyprotein): > 49.8 µM (not active)

CN1C(=S)SC(N(O)C(=O)Nc2ccccc2)C1(C)C (centres undefined)
IC50 (14-3-3 protein gamma): > 50 µM (not active)
